Key:
Assay in all cases: relative viability (nuclei count vs DMSO), 5 days (fraction); higher = more cells survive
[1] = compound: C1=CC=C(C(=C1)C2=CC=C(C=C2)C3=CSC4=C3C(=C(C(=O)N4)C#N)O)O + CC(C)C[C@H](NC(=O)[C@H](Cc1ccccc1)NC(=O)c1cnccn1)B(O)O [Bortezomib] (partner 0.002 µM)
Procedure, shortened: (§1)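 Five library-drug doses in √10 steps were combined with a fixed anchor-drug dose, or a single drug was given alone, by pin tool to lung cancer cell lines in 1536-well plates the day after seeding. Nuclei were stained and counted after 5 days. Relative viability is the nuclei count in treated wells over that in vehicle wells, taken as the median of duplicate plates.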

TGX 221 + Bortezomib = compound: CC1=CN2C(=O)C=C(N=C2C(=C1)C(C)NC3=CC=CC=C3)N4CCOCC4 [TGX 221] + CC(C)C[C@H](NC(=O)[C@H](Cc1ccccc1)NC(=O)c1cnccn1)B(O)O [Bortezomib] (partner 0.002 µM)
Procedure, shortened: as §1

TGX 221 + Crizotinib = compound: CC1=CN2C(=O)C=C(N=C2C(=C1)C(C)NC3=CC=CC=C3)N4CCOCC4 [TGX 221] + C[C@@H](Oc1cc(-c2cnn(C3CCNCC3)c2)cnc1N)c1c(Cl)ccc(F)c1Cl [Crizotinib] (partner 1 µM)
Procedure, shortened: as §1

TGX 221 + Dasatinib = compound: CC1=CN2C(=O)C=C(N=C2C(=C1)C(C)NC3=CC=CC=C3)N4CCOCC4 [TGX 221] + Cc1nc(Nc2ncc(C(=O)Nc3c(C)cccc3Cl)s2)cc(N2CCN(CCO)CC2)n1 [Dasatinib] (partner 0.075 µM)
Procedure, shortened: as §1

## NCI-H23
[1]; first compound 0.08 µM
  relative viability: 0.884
[1]; first compound 0.253 µM
  relative viability: 1.11
[1]; first compound 0.8 µM
  relative viability: 1.19
[1]; first compound 2.53 µM
  relative viability: 1.07
[1]; first compound 8 µM
  relative viability: 0.558
TGX 221 + Bortezomib; first compound 0.08 µM
  relative viability: 0.861
TGX 221 + Bortezomib; first compound 0.253 µM
  relative viability: 1.21
TGX 221 + Bortezomib; first compound 0.8 µM
  relative viability: 1.11
TGX 221 + Bortezomib; first compound 2.53 µM
  relative viability: 1.03
TGX 221 + Bortezomib; first compound 8 µM
  relative viability: 0.963
TGX 221 + Crizotinib; first compound 0.08 µM
  relative viability: 0.58
TGX 221 + Crizotinib; first compound 0.253 µM
  relative viability: 0.391
TGX 221 + Crizotinib; first compound 0.8 µM
  relative viability: 0.518
TGX 221 + Crizotinib; first compound 2.53 µM
  relative viability: 0.465
TGX 221 + Crizotinib; first compound 8 µM
  relative viability: 0.454
TGX 221 + Dasatinib; first compound 0.08 µM
  relative viability: 0.784
TGX 221 + Dasatinib; first compound 0.253 µM
  relative viability: 0.745
TGX 221 + Dasatinib; first compound 0.8 µM
  relative viability: 0.823
TGX 221 + Dasatinib; first compound 2.53 µM
  relative viability: 0.742
TGX 221 + Dasatinib; first compound 8 µM
  relative viability: 0.586

## NCI-H322M
[1]; first compound 0.08 µM
  relative viability: 1.13
[1]; first compound 0.253 µM
  relative viability: 1.22
[1]; first compound 0.8 µM
  relative viability: 1.24
[1]; first compound 2.53 µM
  relative viability: 1.34
[1]; first compound 8 µM
  relative viability: 1.11
TGX 221 + Bortezomib; first compound 0.08 µM
  relative viability: 1.15
TGX 221 + Bortezomib; first compound 0.253 µM
  relative viability: 1.09
TGX 221 + Bortezomib; first compound 0.8 µM
  relative viability: 1.15
TGX 221 + Bortezomib; first compound 2.53 µM
  relative viability: 1.18
TGX 221 + Bortezomib; first compound 8 µM
  relative viability: 1.11
TGX 221 + Crizotinib; first compound 0.08 µM
  relative viability: 0.945
TGX 221 + Crizotinib; first compound 0.253 µM
  relative viability: 1.03
TGX 221 + Crizotinib; first compound 0.8 µM
  relative viability: 0.95
TGX 221 + Crizotinib; first compound 2.53 µM
  relative viability: 0.823
TGX 221 + Crizotinib; first compound 8 µM
  relative viability: 0.911
TGX 221 + Dasatinib; first compound 0.08 µM
  relative viability: 0.231
TGX 221 + Dasatinib; first compound 0.253 µM
  relative viability: 0.242
TGX 221 + Dasatinib; first compound 0.8 µM
  relative viability: 0.244
TGX 221 + Dasatinib; first compound 2.53 µM
  relative viability: 0.247
TGX 221 + Dasatinib; first compound 8 µM
  relative viability: 0.224

## NCI-H441
[1]; first compound 0.253 µM
  relative viability: 0.534
[1]; first compound 2.53 µM
  relative viability: 0.757
[1]; first compound 8 µM
  relative viability: 0.441
TGX 221 + Bortezomib; first compound 0.08 µM
  relative viability: 0.515
TGX 221 + Bortezomib; first compound 0.253 µM
  relative viability: 0.772
TGX 221 + Bortezomib; first compound 0.8 µM
  relative viability: 0.416
TGX 221 + Bortezomib; first compound 2.53 µM
  relative viability: 0.566
TGX 221 + Bortezomib; first compound 8 µM
  relative viability: 0.389
TGX 221 + Crizotinib; first compound 0.08 µM
  relative viability: 0.732
TGX 221 + Crizotinib; first compound 0.253 µM
  relative viability: 0.82
TGX 221 + Crizotinib; first compound 0.8 µM
  relative viability: 0.657
TGX 221 + Crizotinib; first compound 2.53 µM
  relative viability: 0.62
TGX 221 + Crizotinib; first compound 8 µM
  relative viability: 0.697
TGX 221 + Dasatinib; first compound 0.08 µM
  relative viability: 0.534
TGX 221 + Dasatinib; first compound 0.253 µM
  relative viability: 0.597
TGX 221 + Dasatinib; first compound 0.8 µM
  relative viability: 0.59
TGX 221 + Dasatinib; first compound 2.53 µM
  relative viability: 0.609
TGX 221 + Dasatinib; first compound 8 µM
  relative viability: 0.661

## NCI-H460
[1]; first compound 0.253 µM
  relative viability: 0.828
[1]; first compound 0.8 µM
  relative viability: 1.34
[1]; first compound 2.53 µM
  relative viability: 1.41
[1]; first compound 8 µM
  relative viability: 0.624
TGX 221 + Bortezomib; first compound 0.08 µM
  relative viability: 0.724
TGX 221 + Bortezomib; first compound 0.253 µM
  relative viability: 0.922
TGX 221 + Bortezomib; first compound 0.8 µM
  relative viability: 1.02
TGX 221 + Bortezomib; first compound 2.53 µM
  relative viability: 1.11
TGX 221 + Bortezomib; first compound 8 µM
  relative viability: 1
TGX 221 + Crizotinib; first compound 0.08 µM
  relative viability: 0.754
TGX 221 + Crizotinib; first compound 0.253 µM
  relative viability: 0.811
TGX 221 + Crizotinib; first compound 0.8 µM
  relative viability: 1.05
TGX 221 + Crizotinib; first compound 2.53 µM
  relative viability: 0.896
TGX 221 + Crizotinib; first compound 8 µM
  relative viability: 0.64
TGX 221 + Dasatinib; first compound 0.08 µM
  relative viability: 0.478
TGX 221 + Dasatinib; first compound 0.253 µM
  relative viability: 0.477
TGX 221 + Dasatinib; first compound 0.8 µM
  relative viability: 0.526
TGX 221 + Dasatinib; first compound 2.53 µM
  relative viability: 0.539
TGX 221 + Dasatinib; first compound 8 µM
  relative viability: 0.432

## NCI-H520
[1]; first compound 0.08 µM
  relative viability: 0.496
[1]; first compound 0.253 µM
  relative viability: 0.494
[1]; first compound 0.8 µM
  relative viability: 0.903
[1]; first compound 2.53 µM
  relative viability: 0.506
[1]; first compound 8 µM
  relative viability: 0.492
TGX 221 + Bortezomib; first compound 0.08 µM
  relative viability: 0.345
TGX 221 + Bortezomib; first compound 0.253 µM
  relative viability: 0.457
TGX 221 + Bortezomib; first compound 0.8 µM
  relative viability: 0.56
TGX 221 + Bortezomib; first compound 2.53 µM
  relative viability: 0.263
TGX 221 + Bortezomib; first compound 8 µM
  relative viability: 0.309
TGX 221 + Crizotinib; first compound 0.08 µM
  relative viability: 0.532
TGX 221 + Crizotinib; first compound 0.253 µM
  relative viability: 0.724
TGX 221 + Crizotinib; first compound 0.8 µM
  relative viability: 0.68
TGX 221 + Crizotinib; first compound 2.53 µM
  relative viability: 0.572
TGX 221 + Crizotinib; first compound 8 µM
  relative viability: 0.398
TGX 221 + Dasatinib; first compound 0.08 µM
  relative viability: 0.215
TGX 221 + Dasatinib; first compound 0.253 µM
  relative viability: 0.202
TGX 221 + Dasatinib; first compound 0.8 µM
  relative viability: 0.156
TGX 221 + Dasatinib; first compound 2.53 µM
  relative viability: 0.16
TGX 221 + Dasatinib; first compound 8 µM
  relative viability: 0.159

## NCI-H596
[1]; first compound 0.08 µM
  relative viability: 0.715
[1]; first compound 0.253 µM
  relative viability: 1.63
[1]; first compound 0.8 µM
  relative viability: 1.2
[1]; first compound 2.53 µM
  relative viability: 0.926
[1]; first compound 8 µM
  relative viability: 0.933
TGX 221 + Bortezomib; first compound 0.08 µM
  relative viability: 1.17
TGX 221 + Bortezomib; first compound 0.253 µM
  relative viability: 1.21
TGX 221 + Bortezomib; first compound 0.8 µM
  relative viability: 0.938
TGX 221 + Bortezomib; first compound 2.53 µM
  relative viability: 0.871
TGX 221 + Bortezomib; first compound 8 µM
  relative viability: 0.948
TGX 221 + Crizotinib; first compound 0.08 µM
  relative viability: 0.993
TGX 221 + Crizotinib; first compound 0.253 µM
  relative viability: 1.04
TGX 221 + Crizotinib; first compound 0.8 µM
  relative viability: 1
TGX 221 + Crizotinib; first compound 2.53 µM
  relative viability: 0.823
TGX 221 + Crizotinib; first compound 8 µM
  relative viability: 0.82
TGX 221 + Dasatinib; first compound 0.08 µM
  relative viability: 0.593
TGX 221 + Dasatinib; first compound 0.253 µM
  relative viability: 0.531
TGX 221 + Dasatinib; first compound 0.8 µM
  relative viability: 0.585
TGX 221 + Dasatinib; first compound 2.53 µM
  relative viability: 0.522
TGX 221 + Dasatinib; first compound 8 µM
  relative viability: 0.563

## NCI-H647
[1]; first compound 0.08 µM
  relative viability: 1.01
[1]; first compound 0.253 µM
  relative viability: 1.16
[1]; first compound 0.8 µM
  relative viability: 1.09
[1]; first compound 2.53 µM
  relative viability: 0.919
[1]; first compound 8 µM
  relative viability: 0.649
TGX 221 + Bortezomib; first compound 0.08 µM
  relative viability: 0.929
TGX 221 + Bortezomib; first compound 0.253 µM
  relative viability: 0.66
TGX 221 + Bortezomib; first compound 0.8 µM
  relative viability: 0.926
TGX 221 + Bortezomib; first compound 2.53 µM
  relative viability: 0.676
TGX 221 + Bortezomib; first compound 8 µM
  relative viability: 0.616
TGX 221 + Crizotinib; first compound 0.08 µM
  relative viability: 1.12
TGX 221 + Crizotinib; first compound 0.253 µM
  relative viability: 0.947
TGX 221 + Crizotinib; first compound 0.8 µM
  relative viability: 1.06
TGX 221 + Crizotinib; first compound 2.53 µM
  relative viability: 1.04
TGX 221 + Crizotinib; first compound 8 µM
  relative viability: 0.553
TGX 221 + Dasatinib; first compound 0.08 µM
  relative viability: 0.189
TGX 221 + Dasatinib; first compound 0.253 µM
  relative viability: 0.145
TGX 221 + Dasatinib; first compound 0.8 µM
  relative viability: 0.15
TGX 221 + Dasatinib; first compound 2.53 µM
  relative viability: 0.163
TGX 221 + Dasatinib; first compound 8 µM
  relative viability: 0.136
